Data on 13 molecules can be found in patent EP4293019A1, “4-SUBSTITUTED (1H-BENZO[D]IMIDAZOL-2-YL)-1H-PYRAZOLES AS BUB1 INHIBITORS USEFUL FOR TREATING CANCERS” (Netherlands Translational Research Center Holding B.V., priority 2022, dated 2023).

The target in assay [1] is T1, hBUB1 (Homo sapiens, UniProt O43683).
T1 construct: purchased Carna Biosciences 05-187
Description: hBUB1 kinase activity assay (biochemical fluorescence polarization assay, IMAP). The conditions noted are these: BUB1/BUB3 3.26 nM, ATP 15 µM, BUB1/BUB3 substrate 75 nM; N=2, n=2; read-out: hBUB1 pIC50 (converted). The method, then: This protocol describes how the Kinase Activity Assay was performed to determine pIC50 values of compounds of general formula (I) against hBUB1.
Assays were performed in 384-well plates (Greiner, black, flat bottom, 781076) by sequential addition (final concentrations are indicated) of inhibitor (5 µL, 0.3 nM - 1 µM or 3 nM - 10 µM), BUB1/BUB3 (5 µL, 3.26 nM, Carna Biosciences (05-187), lot: 15CBS-0644 D), ATP (5 µL, 15 µM) and BUB1/BUB3 substrate (5 µL, 75 nM, Carna Biosciences (05-187MSSU)), all as 4x working solutions. The final concentration of DMSO was 1%. Assay reactions were stopped by addition of IMAP progressive binding reagent (20 µL, 1200x diluted, Molecular Devices (R8155), lot: 3117896). Each assay included the following controls: (i) a background control (treated with vehicle instead of inhibitor and BUB1/BUB3 substrate), (ii) MIN controls (treated with 5 µM BAY1816032 (MedChem Express) as inhibitor, used as 0% BUB1 activity) and (iii) MAX controls (treated with vehicle instead of inhibitor, used as 100% BUB1 activity). All inhibitors were tested in two separate assays and all inhibitor concentrations were tested in duplicate per assay (N=2, n=2).
For each assay, assay buffer (AB) was freshly prepared and consisted of 20 mM HEPES (prepared by diluting 1 M HEPES, pH 7.2), 5 mM MgCl2, 0.01% Tween-20 and 1 mM DTT. Stocks of inhibitors (in DMSO) were diluted in AB to obtain 4x working solutions (4% DMSO) and 5 µL was added to the assay plate. BUB1/BUB3 (3.26 µM (486 µg/mL) in storage buffer) was diluted in AB to obtain 13.0 nM of which 5 µL was added to all wells of the assay plate. The assay plate was centrifuged (1 min, 200 g) and incubated at RT for 30 min. ATP (4 mM in MilliQ) was diluted in AB to obtain 60 µM of which 5 µL was added to each well. BUB1/BUB3 substrate (1 mM) was diluted in 20 mM HEPES (prepared by diluting 1 M HEPES (pH 7.2) in MilliQ) to obtain 80 µM (this solution was freshly prepared every assay) and further diluted in AB to obtain 300 nM after which 5 µL was added to each well of the assay plate except for background control wells. The assay plate was centrifuged (1 min, 200 g) and incubated at RT in the dark for 180 min. IMAP progressive binding buffer A (5x) and IMAP progressive binding buffer B (5x) were mixed in a ratio to obtain 30% buffer A and 70% buffer B, which was subsequently diluted 5x in MilliQ. IMAP progressive binding reagent was diluted 600x in aforementioned mixture of buffer A and B (to obtain a 2x working solution) of which 20 µL was added to each well of the assay plate. The assay plate was centrifuged (1 min, 200 g) and incubated at RT in the dark for 90 min. Fluorescence polarization was measured on a CLARIOstar plate reader using the following settings: (i) optic settings → excitation = F: 482-16, dichroic = F: LP 504, emission = F: 530-40, (ii) optic = top optic, (iii) speed/precision = maximum precision, (iv) focus adjustment was performed for every assay and (v) gain adjustment was done by setting the target mP value to 35 mP for one of the MIN control wells. Data was normalized between MIN and MAX controls and data was plotted using GraphPad Prism 8.0 using "Nonlinear regression (curve fit)" and "log(inhibitor) vs. normalized response - Variable slope" to determine pIC50 values.
Inhibition is indicated as pIC50 ("-" = not measured). Compounds having an activity designated as "A" provided an pIC50 ≥ 7.0 (IC50 ≤100 nM); compounds having an activity designated as "B" provided an 6.3 ≤ pIC50 < 7.0 (100 nM<IC50 ≤ 500 nM); compounds having an activity designated as "C" provided an 6.0 ≤ pIC50 < 6.3 (500 nM < IC50 ≤ 1 µM); compounds having an activity designated as "D" provided an 6.0 < pIC50 ≤ 5.0 (1 µM < IC50 ≤ 10 µM); and compounds having an activity designated as "E" provided an pIC50 < 5.0 (IC50 >10 µM).
(Polarisation of emitted light reports the rotation of a fluorescent probe.)

Assay [2] has as its system U2OS cells. Description: Cellular proliferation assay (SRB proliferation assay). It counts as cell-based. Particulars: Homo sapiens, 72 h treatment, SRB staining, N=2, n=3. How it is done:
This protocol describes how the Cellular Proliferation Assay was performed to determine pIC50 values of compounds of general formula (I) against U2OS cells.
U2OS (human osteosarcoma) cells were purchased at ATCC and were tested on regular basis for mycoplasma contamination. Cultures were discarded after 2-3 months of use. Cells were cultured at 37°C under 7% CO2 in DMEM (Sigma Aldrich, D6546) supplemented with GlutaMAX (2 mM, ThermoFisher), 10% (v/v) heat-inactivated newborn calf serum (Seradigm), penicillin and streptomycin (200 µg/mL each, Duchefa) (complete medium). Medium was refreshed every 2-3 days and cells were passaged by trypsinization twice a week at 80-90% confluence. Cell viability was assessed by Trypan Blue exclusion and cell quantification using a TC20™ Automated Cell Counter (Bio-Rad).
Assays were performed in 96-well plates (Greiner, Cellstar, 655180) by seeding (day 0), treatment (day 1) and subsequent incubation for 72 h. Cells were fixed, stained and staining was subsequently dissolved after which absorbance was measured. Each assay included the following controls: (i) a background control (to which no cells were added), (ii) t0 controls (separate assay plate in which cells were fixed on day 1, used as 0% proliferation), (iii) nontreated controls (present in each assay plate, treated with vehicle and used as 100% proliferation). Cells were treated with different concentrations of indicated inhibitor. All inhibitors were tested in two separate assays and all inhibitor concentrations were tested in triplicate per assay (N=2, n=3).
For each assay, U2OS cells from 10 cm dishes were seeded into 96-well plates (3,000 cells/well) and subsequently incubated overnight to allow for cell adherence. Stocks of inhibitor and vehicle (all in DMSO) were diluted in complete medium to obtain 2x working solutions (1% DMSO). Cell medium was replaced by fresh complete medium (50 µL), treatment was started by addition of the 2x working solutions (50 µL) and plates were incubated at 37°C for 72 h. Cell medium was replaced by fresh serum free medium (100 µL) and cells were fixed by addition of 30 µL 50% (w/v) aq. trichloroacetic acid after which the plates were incubated at 4°C for 60 min. Wells were emptied by shaking the plates upside down after which wells were washed three times with demineralized water and air-dried overnight. To each well, 60 µL of SRB solution (0.4% (w/v) in 1% aq. acetic acid) was added and plates were incubated for 30 min. The excess SRB was removed and the wells were washed three times with 1% aq. acetic acid and air-dried overnight. Bound SRB was redissolved by addition of 150 µL 10 mM TRIS (free-base) and absorbance was measured at 540 nm on a CLARIOstar plate reader. Data was normalized between t0 and nontreated controls and plotted using GraphPad Prism 8.0 using "Nonlinear regression (curve fit)" and "log(inhibitor) vs. normalized response - Variable slope" to determine pIC50 values.
Inhibition is indicated as pIC50 ("-" = not measured). Compounds having an activity designated as "A" provided an pIC50 ≥ 6.0 (IC50 ≤1 µM); compounds having an activity designated as "B" provided an 5.3 ≤ pIC50 < 6.0 (1 µM<IC50 ≤ 5 µM); compounds having an activity designated as "C" provided an 5.0 ≤ pIC50 < 5.3 (5 µM < IC50 ≤ 10 µM); compounds having an activity designated as "D" provided an 5.0 < pIC50 ≤ 4.7 (10 µM < IC50 ≤ 20 µM); and compounds having an activity designated as "E" provided an pIC50 < 4.7 (IC50 >20 µM).
On the technique in general: The SRB assay estimates cell density from bound dye.

T1 sequence (O43683 whole entry): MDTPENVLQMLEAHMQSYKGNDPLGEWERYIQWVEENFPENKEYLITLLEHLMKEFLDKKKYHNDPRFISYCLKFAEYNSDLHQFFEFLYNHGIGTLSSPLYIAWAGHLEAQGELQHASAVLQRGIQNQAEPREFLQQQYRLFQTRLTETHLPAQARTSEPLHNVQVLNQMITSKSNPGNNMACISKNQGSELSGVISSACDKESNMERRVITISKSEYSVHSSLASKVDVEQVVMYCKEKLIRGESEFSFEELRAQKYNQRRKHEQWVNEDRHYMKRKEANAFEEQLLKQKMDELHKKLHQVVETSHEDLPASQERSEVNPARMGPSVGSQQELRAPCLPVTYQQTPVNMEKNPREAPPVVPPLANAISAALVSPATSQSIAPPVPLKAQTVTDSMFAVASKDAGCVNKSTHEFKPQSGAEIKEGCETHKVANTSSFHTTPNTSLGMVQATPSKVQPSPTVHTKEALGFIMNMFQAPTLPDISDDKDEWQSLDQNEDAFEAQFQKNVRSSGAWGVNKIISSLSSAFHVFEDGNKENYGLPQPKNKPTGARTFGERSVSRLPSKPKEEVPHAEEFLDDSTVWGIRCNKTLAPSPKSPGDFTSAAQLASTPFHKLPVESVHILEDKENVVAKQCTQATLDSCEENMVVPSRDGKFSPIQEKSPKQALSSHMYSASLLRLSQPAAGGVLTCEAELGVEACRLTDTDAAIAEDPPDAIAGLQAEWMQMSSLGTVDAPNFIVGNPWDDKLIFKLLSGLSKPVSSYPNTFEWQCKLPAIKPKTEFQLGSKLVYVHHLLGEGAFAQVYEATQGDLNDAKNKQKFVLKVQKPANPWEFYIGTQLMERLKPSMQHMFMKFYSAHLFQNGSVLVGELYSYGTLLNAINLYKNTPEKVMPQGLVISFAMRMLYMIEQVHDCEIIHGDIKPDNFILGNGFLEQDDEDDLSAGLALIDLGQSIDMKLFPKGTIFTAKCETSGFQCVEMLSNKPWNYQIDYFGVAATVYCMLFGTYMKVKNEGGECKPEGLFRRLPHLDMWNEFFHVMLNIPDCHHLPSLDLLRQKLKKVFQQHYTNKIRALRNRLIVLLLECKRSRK
T1 sequence (O43684 whole entry partner): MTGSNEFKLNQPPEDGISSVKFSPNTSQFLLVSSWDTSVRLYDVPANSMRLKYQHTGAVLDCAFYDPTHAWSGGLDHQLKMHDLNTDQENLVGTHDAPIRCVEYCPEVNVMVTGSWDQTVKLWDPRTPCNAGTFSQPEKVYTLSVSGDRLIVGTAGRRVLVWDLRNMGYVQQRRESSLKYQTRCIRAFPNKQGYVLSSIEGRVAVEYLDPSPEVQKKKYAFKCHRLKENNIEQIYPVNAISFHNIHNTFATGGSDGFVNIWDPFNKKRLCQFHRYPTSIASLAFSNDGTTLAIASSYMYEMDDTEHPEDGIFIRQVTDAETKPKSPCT

For the molecule `c1ccc(-c2nccc(Nc3c[nH]nc3-c3nc4cc(CN5CCOCC5)ccc4[nH]3)n2)cc1` [Compound 16, N-(3-(5-(morpholinomethyl)-1H-benzo[d]imidazol-2-yl)-1H-pyrazol-4-yl)-2-phenylpyrimidin-4-amine], the IC50 is 100 to 501 nM in assay [1] and 1000 to 5010 nM in assay [2].
Turning to `c1ccc(Oc2nccc(Nc3c[nH]nc3-c3nc4cc(CN5CCOCC5)ccc4[nH]3)n2)cc1` [Compound 17, N-(3-(5-(morpholinomethyl)-1H-benzo[d]imidazol-2-yl)-1H-pyrazol-4-yl)-2-phenoxypyrimidin-4-amine], the IC50 was 100 to 501 nM in assay [1] and 5010 to 10000 nM in assay [2].
On to `c1ccc(COc2nccc(Nc3c[nH]nc3-c3nc4cc(CN5CCOCC5)ccc4[nH]3)n2)cc1` [Compound 18, 2-(benzyloxy)-N-(3-(5-(morpholinomethyl)-1H-benzo[d]imidazol-2-yl)-1H-pyrazol-4-yl)pyrimidin-4-amine], for which the IC50 was 100 to 501 nM in assay [1] and 1000 to 5010 nM in assay [2].
Taken in the same sequence, the figures for `Clc1cccc(-c2nccc(Nc3c[nH]nc3-c3nc4cc(CN5CCOCC5)ccc4[nH]3)n2)c1` [Compound 41, 2-(3-Chlorophenyl)-N-(3-(5-(morpholinomethyl)-1H-benzo[d]imidazol-2-yl)-1H-pyrazol-4-yl)pyrimidin-4-amine] were at most 100 nM and 1000 to 5010 nM.
Turning to `C#Cc1cccc(-c2nccc(Nc3c[nH]nc3-c3nc4cc(CN5CCOCC5)ccc4[nH]3)n2)c1` [Compound 42, 2-(3-Ethynylphenyl)-N-(3-(5-(morpholinomethyl)-1H-benzo[d]imidazol-2-yl)-1H-pyrazol-4-yl)pyrimidin-4-amine], the IC50 in assay [1] was at most 100 nM; in assay [2], 1000 to 5010 nM.
As to `FC(F)(F)c1cccc(-c2nccc(Nc3c[nH]nc3-c3nc4cc(CN5CCOCC5)ccc4[nH]3)n2)c1` [Compound 43, N-(3-(5-(Morpholinomethyl)-1H-benzo[d]imidazol-2-yl)-1H-pyrazol-4-yl)-2-(3-(trifluoromethyl)phenyl)pyrimidin-4-amine], the IC50 was 501 to 1000 nM in assay [1] and 1000 to 5010 nM in assay [2].
Regarding `N#Cc1cccc(-c2nccc(Nc3c[nH]nc3-c3nc4cc(CN5CCOCC5)ccc4[nH]3)n2)c1` [Compound 44, 3-(4-((3-(5-(Morpholinomethyl)-1H-benzo[d]imidazol-2-yl)-1H-pyrazol-4-yl)amino)pyrimidin-2-yl)benzonitrile], the IC50 in assay [1] was 501 to 1000 nM; in assay [2], 1000 to 5010 nM.
On to `Fc1c(Cl)cccc1-c1nccc(Nc2c[nH]nc2-c2nc3cc(CN4CCOCC4)ccc3[nH]2)n1` [Compound 45, 2-(3-Chloro-2-fluorophenyl)-N-(3-(5-(morpholinomethyl)-1H-benzo[d]imidazol-2-yl)-1H-pyrazol-4-yl)pyrimidin-4-amine], for which the results for the IC50 in assay [1] and in assay [2] were at most 100 nM and 1000 to 5010 nM, respectively.
In the case of `C#Cc1cccc(-c2nccc(Nc3c[nH]nc3-c3nc4cc(CN5CCOCC5)ccc4[nH]3)n2)c1F` [Compound 46, 2-(3-Ethynyl-2-fluorophenyl)-N-(3-(5-(morpholinomethyl)-1H-benzo[d]imidazol-2-yl)-1H-pyrazol-4-yl)pyrimidin-4-amine], the IC50 in assay [1] is at most 100 nM; in assay [2], at most 1000 nM.
For `Fc1ccc(Cl)cc1-c1nccc(Nc2c[nH]nc2-c2nc3cc(CN4CCOCC4)ccc3[nH]2)n1` [Compound 47, 2-(5-Chloro-2-fluorophenyl)-N-(3-(5-(morpholinomethyl)-1H-benzo[d]imidazol-2-yl)-1H-pyrazol-4-yl)pyrimidin-4-amine] the same measures were at most 100 nM and 1000 to 5010 nM.
As for `COc1cnc(-c2cccc(Cl)c2)nc1Nc1c[nH]nc1-c1nc2cc(CN3CCOCC3)ccc2[nH]1` [Compound 51, 2-(3-Chlorophenyl)-5-methoxy-N-(3-(5-(morpholinomethyl)-1H-benzo[d]imidazol-2-yl)-1H-pyrazol-4-yl)pyrimidin-4-amine], the values for the IC50 in assay [1] and in assay [2] were at most 100 nM and at most 1000 nM, respectively.
Turning to `C#Cc1cccc(-c2ncc(OC)c(Nc3c[nH]nc3-c3nc4cc(CN5CCOCC5)ccc4[nH]3)n2)c1` [Compound 52, 2-(3-Ethynylphenyl)-5-methoxy-N-(3-(5-(morpholinomethyl)-1H-benzo[d]imidazol-2-yl)-1H-pyrazol-4-yl)pyrimidin-4-amine], the IC50 in assay [1] was at most 100 nM; in assay [2] it was at most 1000 nM.
Turning to `COc1cnc(-c2cccc(C(F)(F)F)c2)nc1Nc1c[nH]nc1-c1nc2cc(CN3CCOCC3)ccc2[nH]1` [Compound 53, 5-Methoxy-N-(3-(5-(morpholinomethyl)-1H-benzo[d]imidazol-2-yl)-1H-pyrazol-4-yl)-2-(3-(trifluoromethyl)phenyl)pyrimidin-4-amine], the IC50 was 100 to 501 nM in assay [1] and at most 1000 nM in assay [2].
